Assay results published in US20240139236A1, “COPPER HISTIDINATE COMPOSITIONS AND USES THEREOF” (Cyprium Therapeutics, Inc., priority 2021, published 2024).
Marks after values point to notes of the source that are not given here.

Experiment: Single subcutaneous dose [14C]-copper histidinate pharmacokinetic study in healthy adult male subjects
Type: in vivo, human
Settings: for Whole Blood:Serum Total Radioactivity Partitioning Ratio (Arithmetic Mean ± SD): n = 6; for Whole Blood:Serum Total Radioactivity Partitioning Ratio: 504 hour postdose, n = 1 (Subject 6)
Excerpt: The primary objective of this study was to quantitate total radioactivity (TRA) in whole blood, serum, and the eluted fractions of serum spiked with unlabeled copper histidinate (CuHis) from a size exclusion-high performance liquid chromatography (SEC-HPLC) column after a single subcutaneous (SC) administration of [^14C] CuHis in healthy adult male subjects. Further, the study was designed to determine the percentage of ^14C radioactivity associated with cellular components in whole blood over time (e.g., whole blood:serum partitioning concentration ratio).
To evaluate the safety and tolerability after a single SC administration of [^14C] CuHis in healthy adult male subjects. This was an open-label, single-dose, 1-period, PK study conducted at 1 study center in the USA. Six (6) healthy, adult male subjects were enrolled. Screening of subjects occurred within 28 days prior to dosing.
On Day 1, a single SC 3.0 mg (˜500 nCi) dose of [^14C]-CuHis was administered. Pharmacokinetic (PK) samples for determining TRA in whole blood and serum, and [^14C] CuHis in eluted fractions of serum spiked with unlabeled CuHis from an SEC-HPLC column were collected pre-dose and up to 168 hours post-dose (Subjects 1 to 5) or 504 hours post-dose (Subject 6).
A single dose of 3.0 mg (˜500 nCi) [^14C]-CuHis (equivalent to approximately 500 μg of elemental copper) for SC bolus injection was administered into the upper arm of each subject at Hour 0 on Day 1. Hour 0 corresponded to the start of the bolus SC administration on Day 1. Subjects were instructed not to rub the injection site(s).
Blood samples for determining TRA in whole blood and serum, and [^14C]-CuHis in eluted fractions of serum spiked with unlabeled CuHis from a SEC-HPLC column were collected predose and up to 168 hours postdose (Subjects 1 to 5) or up to 504 hours postdose (Subject 6).
TRA CuHis concentration equivalents in whole blood and serum were determined using accelerator mass spectrometry (AMS) at Pharmaron ABS, Inc. (Germantown, Maryland, USA). The lower limits of quantitation (LLOQ) for TRA CuHis concentration equivalents in whole blood and serum ranged from 0.711 to 0.770 ng eq CuHis/mL and 0.239 to 0.284 ng eq CuHis/mL in the different subjects, respectively.
[^14C]-CuHis concentrations in serum fractions from the SEC-HPLC column were determined using AMS at Pharmaron ABS, Inc. (Germantown, Maryland, USA). The LLOQ for [^14C]-CuHis concentrations in serum was 0.270 ng/mL.
Whole blood: serum TRA partitioning ratios were calculated at each postdose time point for each subject as the ratio between whole blood TRA CuHis concentration equivalents and serum TRA CuHis concentration equivalents. The following parameters were calculated for whole blood and serum TRA, and serum [^14C]-CuHis, when possible: AUC0-24, AUC0-last, AUC0-∞, AUC% extrap, Cmax, tmax, tlag, Kel, and t1/2. The AUC0-24 Ratio was calculated for serum [^14C]-CuHis versus serum TRA. CL/F and Vz/F were calculated for serum [^14C]-CuHis.
Whole blood and serum TRA CuHis concentration equivalents, serum [^14C]-CuHis concentrations, and whole blood:serum TRA partitioning ratios were listed and summarized by time point for all subjects in the PK population. Summary statistics, including sample size (n), arithmetic mean (Mean), standard deviation (SD), coefficient of variation (CV %), standard error of the mean (SEM), minimum, median, and maximum were calculated for the above data at each nominal time point.
Whole blood and serum TRA PK parameters, and serum [^14C]-CuHis PK parameters were listed for each subject and summarized for all subjects in the PK population. Summary statistics (n, Mean, SD, CV %, SEM, minimum, median, maximum, geometric mean [Geom Mean], and geometric CV % [Geom CV %]) were calculated for all PK parameters.

[1] = single SC 3.0 mg, arithmetic mean ± SD
[2] = single SC 3.0 mg, geometric mean (geometric CV%)
[3] = single SC 3.0 mg, median (minimum, maximum)
[4] = single SC 3.0 mg, median (minimum, maximum), listed as [^14C]-CuHis
[5] = single SC 3.0 mg, up to 168 h, Subject 6 excluded, geometric mean (geometric CV%)

N[C@@H](Cc1c[nH]cn1)C(=O)O.N[C@@H](Cc1c[nH]cn1)C(=O)O.[Cu] [[^14C]-Copper Histidinate]
Whole Blood:Serum Total Radioactivity Partitioning Ratio (Arithmetic Mean ± SD) (0.25 hour postdose): 0.6165 ± 0.1072
Whole Blood:Serum Total Radioactivity Partitioning Ratio (Arithmetic Mean ± SD) (0.5 hour postdose): 0.6410 ± 0.05811
Whole Blood:Serum Total Radioactivity Partitioning Ratio (Arithmetic Mean ± SD) (0.75 hour postdose): 0.6426 ± 0.05966
arithmetic mean serum CuHis concentration, peak (0.75 hours postdose): 63.47 ng/mL
Whole Blood:Serum Total Radioactivity Partitioning Ratio (Arithmetic Mean ± SD) (1 hour postdose): 0.6888 ± 0.06107
Whole Blood:Serum Total Radioactivity Partitioning Ratio (Arithmetic Mean ± SD) (1.5 hour postdose): 0.6728 ± 0.0542
Whole Blood:Serum Total Radioactivity Partitioning Ratio (Arithmetic Mean ± SD) (2 hour postdose): 0.6761 ± 0.03446
Whole Blood:Serum Total Radioactivity Partitioning Ratio (Arithmetic Mean ± SD) (4 hour postdose): 0.7010 ± 0.09398
Whole Blood:Serum Total Radioactivity Partitioning Ratio (Arithmetic Mean ± SD) (8 hour postdose): 0.5856 ± 0.1175
arithmetic mean serum TRA CuHis concentration equivalent, peak (8 hours postdose): 97.43 ng eq CuHis/mL
Whole Blood:Serum Total Radioactivity Partitioning Ratio (Arithmetic Mean ± SD) (16 hour postdose): 0.7144 ± 0.1134
Whole Blood:Serum Total Radioactivity Partitioning Ratio (Arithmetic Mean ± SD) (24 hour postdose): 0.6708 ± 0.08484
Whole Blood:Serum Total Radioactivity Partitioning Ratio (Arithmetic Mean ± SD) (36 hour postdose): 0.7498 ± 0.04878
Whole Blood:Serum Total Radioactivity Partitioning Ratio (Arithmetic Mean ± SD) (36 hour postdose, listed as [^14C]-CuHis): 0.7498
Whole Blood:Serum Total Radioactivity Partitioning Ratio (Arithmetic Mean ± SD) (48 hour postdose): 0.8329 ± 0.09811
Whole Blood:Serum Total Radioactivity Partitioning Ratio (Arithmetic Mean ± SD) (72 hour postdose): 1.209 ± 0.1925
Whole Blood:Serum Total Radioactivity Partitioning Ratio (Arithmetic Mean ± SD) (96 hour postdose): 1.612 ± 0.3461
Whole Blood:Serum Total Radioactivity Partitioning Ratio (Arithmetic Mean ± SD) (120 hour postdose): 1.853 ± 0.3512
Whole Blood:Serum Total Radioactivity Partitioning Ratio (Arithmetic Mean ± SD) (144 hour postdose): 2.163 ± 0.3333
Whole Blood:Serum Total Radioactivity Partitioning Ratio (Arithmetic Mean ± SD) (168 hour postdose): 2.392 ± 0.222
Whole Blood:Serum Total Radioactivity Partitioning Ratio (Arithmetic Mean ± SD) (168 hour postdose, listed as [^14C]-CuHis): 2.392
arithmetic mean whole blood TRA CuHis concentration equivalents, highest level (168 hours postdose): 100.9 ng eq CuHis/mL
Whole Blood:Serum Total Radioactivity Partitioning Ratio: 2.160*
Whole Blood:Serum Total Radioactivity Partitioning Ratio (listed as [^14C]-CuHis): 2.16
serum TRA CuHis concentration equivalent (504 hours postdose, Subject 6): 30.7 ng eq CuHis/mL
whole blood TRA CuHis concentration equivalent (504 hours postdose, Subject 6): 66.3 ng eq CuHis/mL
exposure to TRA (AUC0-last) higher in whole blood than in serum (by 168 hours postdose): approximately 29%
exposure to TRA (AUC0-24) lower in whole blood than in serum (first 24 hours postdose): approximately 34%
exposure to TRA in the serum associated with [14C]-CuHis (first 24 hours postdose): Approximately 9%
distribution phase half-life, serum [14C]-CuHis (initial rapid decrease after peak, estimated): 2 to 3 h
peak exposure to TRA (Cmax), whole blood compared with serum (single SC 3.0 mg): similar
AUC0-∞, serum total radioactivity (single SC 3.0 mg, Subject 6 excluded, geometric mean (geometric CV%)): 23390 (25.7) [n = 5]^c ng eq CuHis · hr/mL
AUC% extrap, serum [14C]-copper histidinate [1]: 12.37 ± 8.3964 [n = 5]^e %
AUC% extrap, serum total radioactivity [1]: 58.34 ± 12.677 [n = 5]^c %
CL/F, serum [14C]-copper histidinate [1]: 10.34 ± 1.6214 [n = 5]^e L/hr
Kel, serum [14C]-copper histidinate [1]: 0.0166 ± 0.01512 [n =5]^e 1/hr
Kel, serum total radioactivity [1]: 0.003278 ± 0.001588 [n = 5]^c 1/hr
t1/2, serum [14C]-copper histidinate (terminal elimination phase) [1]: 74.842 ± 49.1558 [n = 5]^e hr
t1/2, serum [14C]-copper histidinate (terminal elimination phase) (single SC 3.0 mg, arithmetic mean ± SD, listed as [^14C]-CuHis): ~75 h
AUC0-24, serum [14C]-copper histidinate [2]: 185.6 (20.6) ng · hr/mL
AUC0-24, serum total radioactivity [2]: 1993 (21.4) [n = 6] ng eq CuHis · hr/mL
AUC0-24, whole blood total radioactivity [2]: 1315 (30.4) [n = 6] ng eq CuHis · hr/mL
AUC0-24 Ratio, serum [14C]-CuHis versus serum total radioactivity [2]: 0.09317 (19.5) [n = 6]
AUC0-last, serum [14C]-copper histidinate [2]: 249.3 (10.6) ng · hr/mL
AUC0-∞, serum [14C]-copper histidinate [2]: 296.0 (15.3) ng · hr/mL
Cmax, serum [14C]-copper histidinate [2]: 67.14 (35.9) ng/mL
Cmax, serum total radioactivity [2]: 95.78 (24.3) [n = 6] ng eq CuHis/mL
Cmax, whole blood total radioactivity [2]: 100.1 (14.8) [n = 6] ng eq CuHis/mL
AUC0-24 Ratio, serum [14C]-CuHis versus serum total radioactivity (single SC 3.0 mg, geometric mean (geometric CV%), listed as [^14C]-CuHis): 0.09317
tlag, serum [14C]-copper histidinate [3]: 0.00 (0.00, 0.00) [n = 6] hr
tlag, serum total radioactivity [3]: 0.00 (0.00, 0.00) [n = 6] hr
tlag, whole blood total radioactivity [3]: 0.00 (0.00, 0.00) [n = 6] hr
tmax, serum [14C]-copper histidinate [3]: 0.747 (0.50, 0.76) hr
tmax, serum total radioactivity [3]: 8.007 (7.99, 16.02) [n = 6] hr
tmax, whole blood total radioactivity [3]: 168.006 (144.01, 168.03) [n = 6] hr
tmax, serum [14C]-copper histidinate [4]: 0.75 h
tmax, serum total radioactivity [4]: ~8 h
tmax, whole blood total radioactivity [4]: ~168 h
AUC0-last, serum total radioactivity [5]: 9390 (13.4) [n = 5]^c ng eq CuHis · hr/mL
AUC0-last, whole blood total radioactivity [5]: 12130 (15.3) [n = 5]^c ng eq CuHis · hr/mL
